Earlier results as cited in patent US7413751B2, “Methods of treatment using a gastric retained losartan dosage” (Depomed, Inc., priority 2001, dated 2008).
Where two headings read alike, the source gives them in different places.

Key:
[1] = test system: diastolic pressure response to angiotensin II

SMILES	half-life (Japanese patients tested)	half-life (in vivo)	tmax (in vivo)	effects at 24 hours ([1]; 25 mg dosage)	effects at 24 hours ([1]; 50 mg and 100 mg dosages)	peak:trough blood pressure ratio (5-6 hours after dosing: 24 hours after dosing) ([1]; 50 mg dosage)	peak:trough blood pressure ratio (5-6 hours after dosing: 24 hours after dosing) ([1]; 100 mg dosage)	blockade of the diastolic pressure response to angiotensin II ([1]; 24 hours after dosing)
CCCCc1nc(Cl)c(C(=O)O)n1Cc1ccc(-c2ccccc2-c2nn[nH]n2)cc1 [active metabolite of losartan potassium]	4 to 5 h	6 to 9 h	2 to 4 h					
CCCCc1nc(Cl)c(CO)n1Cc1ccc(-c2ccccc2-c2nnn[nH]2)cc1.[K] [losartan potassium, 2-butyl-4-chloro-1[p-(o-1H-tetrazol-5-ylphenyl)benzyl]imidazole-5-methanol monopotassium salt]				not	observed	60%	72%	approximately 30%
